Source: patent US8952024B2, “Herbicidal pyrimidone derivatives” (E I du Pont de Nemours and Company, priority 2009, dated 2015)

Columns and labels:
Assay in all cases: Test B pre-/postemergence plant response
Assay type in all cases: in vivo
[1] = system: Italian ryegrass (Lolium multiflorum)
Method in brief: (§1)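 Plants treated either at seeding (loam/sand soil) or postemergence at 2 to 18 cm height, using a surfactant-containing non-phytotoxic solvent formulation. Evaluation was visual after 13 to 15 days, 0 to 100 scale relative to controls.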

[2] = system: Surinam grass (Brachiaria decumbens)
Method in brief: as §1

[3] = system: bermudagrass (Cynodon dactylon)
Method in brief: as §1

[4] = system: blackgrass (Alopecurus myosuroides)
Method in brief: as §1

corn (Zea mays) = system: corn (Zea mays)
Method in brief: as §1

[5] = system: downy bromegrass (Bromus tectorum)
Method in brief: as §1

[6] = system: giant foxtail (Setaria faberii)
Method in brief: as §1

[7] = system: green foxtail (Setaria viridis)
Method in brief: as §1

[8] = system: lambsquarters (Chenopodium album)
Method in brief: as §1

[9] = system: large crabgrass (Digitaria sanguinalis)
Method in brief: as §1

[10] = system: morningglory (Ipomoea coccinea)
Method in brief: as §1

[11] = system: woolly cupgrass (Eriochloa villosa)
Method in brief: as §1

[12] = system: yellow nutsedge (Cyperus esculentus)
Method in brief: as §1

[13] = Postemergence, 31 g ai/ha, 0 to 100 scale (0 no effect, 100 complete control)
[14] = Postemergence, 62 g ai/ha, scale 0 to 100 (0 no effect, 100 complete control)
[15] = Postemergence, 250 g ai/ha, scale 0 to 100 (0 no effect, 100 complete control), 13 to 15 days
[16] = Preemergence, 31 g ai/ha, scale 0 to 100 (0 no effect, 100 complete control)
[17] = Preemergence, 62 g ai/ha, scale 0 to 100 (0 no effect, 100 complete control)
[18] = Preemergence, 125 g ai/ha, scale 0 to 100, 0 no effect, 100 complete control
[19] = Preemergence, 250 g ai/ha, 0 to 100 scale
[20] = Postemergence, 125 g ai/ha, scale 0 to 100 (0 no effect, 100 complete control)
[21] = 16 g ai/ha, Postemergence, 0 to 100 scale

CCc1ccc(-n2c(-c3ccccc3)ncc(C(=O)C3=C(O)CCCC3=O)c2=O)cc1 [Compound 219]
0: Plant response rating, Ryegrass, Italian [1, 16] | Plant response rating, Ryegrass, Italian [1, 17] | Plant response rating, Corn (corn (Zea mays); [16]) | Plant response rating, Corn (corn (Zea mays); [17]) | Plant response rating, Corn (corn (Zea mays); [18]) | Corn plant response rating (corn (Zea mays); [19]) | Plant response rating, Bromegrass, Downy [5, 16] | Plant response rating, Bromegrass, Downy [5, 17] | Plant response rating, Foxtail, Giant [6, 16] | Plant response rating, Foxtail, Giant [6, 17] | Plant response rating, Morningglory [10, 16] | Plant response rating, Morningglory [10, 17] | Plant response rating, Cupgrass, Woolly [11, 16] | Plant response rating, Nutsedge, Yellow [12, 16]
35: Plant response rating, Blackgrass [4, 17]
95: Plant response rating, Bermudagrass [3, 13] | Plant response rating, Foxtail, Giant [6, 15] | Plant response rating, Crabgrass, Large [9, 14] | Plant response rating, Crabgrass, Large [9, 20] | Plant response rating, Cupgrass, Woolly [11, 20]
10: Ryegrass, Italian plant response rating [1, 19] | Plant response rating, Surinam Grass [2, 13] | Plant response rating, Surinam Grass [2, 16] | Plant response rating, Surinam Grass [2, 17] | Plant response rating, Corn (corn (Zea mays); [13]) | Plant response rating, Bromegrass, Downy [5, 18] | Plant response rating, Foxtail, Giant [6, 18] | Plant response rating, Crabgrass, Large [9, 16] | Plant response rating, Cupgrass, Woolly [11, 17] | Plant response rating, Nutsedge, Yellow [12, 13]
55: Plant response rating, Blackgrass [4, 14] | Plant response rating, Blackgrass [4, 20] | Plant response rating, Nutsedge, Yellow [12, 14]
20: Plant response rating, Ryegrass, Italian [1, 13] | Bromegrass, Downy plant response rating [5, 19] | Plant response rating, Foxtail, Green [7, 16] | Plant response rating, Cupgrass, Woolly [11, 18]
30: Plant response rating, Blackgrass [4, 16]
90: Plant response rating, Blackgrass [4, 15] | Plant response rating, Foxtail, Green [7, 20] | Plant response rating, Foxtail, Green [7, 15] | Plant response rating, Foxtail, Green [7, 18] | Plant response rating, Crabgrass, Large [9, 13] | Nutsedge, Yellow plant response rating [12, 19]
40: Plant response rating, Ryegrass, Italian [1, 15] | Plant response rating, Blackgrass [4, 18]
65: Plant response rating, Surinam Grass [2, 15]
100: Surinam Grass plant response rating [2, 19] | Plant response rating, Bermudagrass [3, 20] | Plant response rating, Bermudagrass [3, 15] | Plant response rating, Bermudagrass [3, 17] | Plant response rating, Bermudagrass [3, 18] | Bermudagrass plant response rating ([3]; Preemergence, 250 g ai/ha, 0 to 100 scale, 0 no effect, 100 complete control) | Foxtail, Green plant response rating [7, 19] | Plant response rating, Lambsquarters [8, 13] | Plant response rating, Lambsquarters [8, 14] | Plant response rating, Lambsquarters [8, 20] | Plant response rating, Lambsquarters [8, 15] | Plant response rating, Lambsquarters [8, 16] | Plant response rating, Lambsquarters [8, 17] | Plant response rating, Lambsquarters [8, 18] | Lambsquarters plant response rating [8, 19] | Plant response rating, Crabgrass, Large [9, 18] | Crabgrass, Large plant response rating [9, 19] | Plant response rating, Morningglory [10, 20] | Plant response rating, Morningglory [10, 15] | Morningglory plant response rating [10, 19]
80: Plant response rating, Corn (corn (Zea mays); [15]) | Plant response rating, Bromegrass, Downy [5, 20] | Plant response rating, Bromegrass, Downy [5, 15] | Plant response rating, Foxtail, Giant [6, 20] | Foxtail, Giant plant response rating [6, 19] | Plant response rating, Foxtail, Green [7, 14] | Cupgrass, Woolly plant response rating [11, 19]
98: Plant response rating, Bermudagrass [3, 14] | Plant response rating, Bermudagrass [3, 16] | Plant response rating, Crabgrass, Large [9, 15] | Plant response rating, Crabgrass, Large [9, 17] | Plant response rating, Cupgrass, Woolly [11, 15]
85: Plant response rating, Morningglory [10, 14] | Plant response rating, Cupgrass, Woolly [11, 13] | Plant response rating, Cupgrass, Woolly [11, 14] | Plant response rating, Nutsedge, Yellow [12, 15] | Plant response rating, Nutsedge, Yellow [12, 18]
45: Plant response rating, Surinam Grass [2, 18] | Plant response rating, Bromegrass, Downy [5, 13] | Plant response rating, Nutsedge, Yellow [12, 17]
25: Plant response rating, Ryegrass, Italian [1, 14] | Plant response rating, Surinam Grass [2, 14]
5: Plant response rating, Ryegrass, Italian [1, 18]
15: Plant response rating, Morningglory [10, 18]
60: Blackgrass plant response rating [4, 19] | Plant response rating, Corn (corn (Zea mays); [14]) | Plant response rating, Morningglory [10, 13]
50: Plant response rating, Blackgrass [4, 13] | Plant response rating, Bromegrass, Downy [5, 14]
75: Plant response rating, Corn (corn (Zea mays); [20])
70: Plant response rating, Foxtail, Giant [6, 13] | Plant response rating, Foxtail, Giant [6, 14] | Plant response rating, Foxtail, Green [7, 13] | Plant response rating, Foxtail, Green [7, 17] | Plant response rating, Nutsedge, Yellow [12, 20]

CC1(C)CC(=O)C(C(=O)c2cnc(-c3ccccc3)n(-c3ccccc3)c2=O)=C(O)C1 [Compound 225]
40: Plant response rating, Bermudagrass [3, 21] | Plant response rating, Corn (corn (Zea mays); [13])
70: Plant response rating, Corn (corn (Zea mays); [20]) | Plant response rating, Bromegrass, Downy [5, 14] | Plant response rating, Crabgrass, Large [9, 21] | Plant response rating, Cupgrass, Woolly [11, 21]
30: Plant response rating, Bromegrass, Downy [5, 21]
80: Plant response rating, Bermudagrass [3, 13] | Plant response rating, Foxtail, Giant [6, 14] | Plant response rating, Morningglory [10, 21]
15: Plant response rating, Blackgrass [4, 20]
5: Plant response rating, Blackgrass [4, 14] | Plant response rating, Nutsedge, Yellow [12, 21]
0: Plant response rating, Ryegrass, Italian [1, 21] | Plant response rating, Ryegrass, Italian [1, 13] | Plant response rating, Blackgrass [4, 21] | Plant response rating, Blackgrass [4, 13]
75: Plant response rating, Surinam Grass [2, 13] | Plant response rating, Surinam Grass [2, 14] | Plant response rating, Foxtail, Giant [6, 21] | Plant response rating, Foxtail, Giant [6, 13] | Plant response rating, Crabgrass, Large [9, 13] | Plant response rating, Cupgrass, Woolly [11, 13] | Plant response rating, Cupgrass, Woolly [11, 14]
98: Plant response rating, Foxtail, Green [7, 14] | Plant response rating, Foxtail, Green [7, 20] | Plant response rating, Lambsquarters [8, 20]
10: Plant response rating, Corn (corn (Zea mays); [21]) | Plant response rating, Nutsedge, Yellow [12, 13]
85: Plant response rating, Bermudagrass [3, 14] | Plant response rating, Bermudagrass [3, 20] | Plant response rating, Bromegrass, Downy [5, 20] | Plant response rating, Foxtail, Giant [6, 20] | Plant response rating, Foxtail, Green [7, 21] | Plant response rating, Foxtail, Green [7, 13] | Plant response rating, Lambsquarters [8, 21] | Plant response rating, Lambsquarters [8, 13] | Plant response rating, Lambsquarters [8, 14] | Plant response rating, Crabgrass, Large [9, 14] | Plant response rating, Cupgrass, Woolly [11, 20]
25: Plant response rating, Nutsedge, Yellow [12, 14] | Plant response rating, Nutsedge, Yellow [12, 20]
50: Plant response rating, Corn (corn (Zea mays); [14])
35: Plant response rating, Ryegrass, Italian [1, 14] | Plant response rating, Surinam Grass [2, 21] | Plant response rating, Bromegrass, Downy [5, 13]
95: Plant response rating, Crabgrass, Large [9, 20] | Plant response rating, Morningglory [10, 13] | Plant response rating, Morningglory [10, 14] | Plant response rating, Morningglory [10, 20]
